{"source": "paper PMC5532807", "about": "(Journal of the American Chemical Society, 2017)", "molecular_target": "T1, JuvD-RhFRED (Micromonospora chalcea, UniProt A0A1Z1MZ59)", "T1 sequence (A0A1Z1MZ59 1-402)": "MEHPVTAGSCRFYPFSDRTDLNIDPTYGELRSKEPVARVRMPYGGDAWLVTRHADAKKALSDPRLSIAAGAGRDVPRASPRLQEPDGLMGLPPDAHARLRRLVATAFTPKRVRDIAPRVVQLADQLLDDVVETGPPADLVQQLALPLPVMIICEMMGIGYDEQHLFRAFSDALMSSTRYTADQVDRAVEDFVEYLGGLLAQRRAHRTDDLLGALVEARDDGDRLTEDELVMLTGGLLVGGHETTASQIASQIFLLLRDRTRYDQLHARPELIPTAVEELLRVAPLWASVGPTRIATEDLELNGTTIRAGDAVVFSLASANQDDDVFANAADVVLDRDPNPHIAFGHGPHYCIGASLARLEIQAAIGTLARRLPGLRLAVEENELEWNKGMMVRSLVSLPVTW", "assay": "in vitro P450 oxidation", "format": "biochemical", "conditions": "C12-C13 epoxidation; enzyme preparation not given"}
{"compound": "CC[C@H]1OC(=O)C[C@@H](O)[C@H](C)[C@@H](O[C@@H]2O[C@H](C)C[C@H](N(C)C)[C@H]2O)[C@@H](CC=O)C[C@@H](C)C(=O)/C=C/C(C)=C/[C@@H]1C", "note": "[compound 5, M-4365 G2]", "values": [{"measurement": "in vitro P450 oxidation", "result": "this enzyme effectively converted each substrate to a single product"}]}
